Consider 10 compounds from article PMC6273267 (Molecules, 2016).

Data set [1] concerns the target T1, AChE (E.C. 3.1.1.7) (Electrophorus electricus, UniProt O42275).
T1 construct: purchased Sigma-Aldrich (St. Louis, MO, USA)
In words: biochemical. Particulars: for Selectivity Index: Selectivity Index = IC50 (BuChE)/IC50 (AChE); for IC50: means ± SEM of three experiments, pH 8.0, 37 °C, 15 min incubation, read-out: AChE Inhibition (IC50). Here is the method: (§1) The inhibitory activity of the synthesized graveoline analogs on cholinesterase in vitro was studied using the Ellman method.
(§2) Stock solutions of all graveoline analogs (10 mM) were prepared using DMSO and stored at −80 °C. Further dilutions to working concentrations were made with double-distilled deionized water. AChE (E.C. 3.1.1.7, obtained from electric eel), BuChE (E.C. 3.1.1.8, obtained from equine serum), 5,5′-dithiobis-(2-nitrobenzoic acid) (Ellman’s reagent, DTNB), acetylthiocholine chloride (ATC), butylthiocholine chloride, thioflavin T, and tarcine hydrochloride were purchased from Sigma-Aldrich (St. Louis, MO, USA). Aβ42 was purchased from Millipore (Billerica, MA, USA). 3-(4,5-Dimethylthiazol-2-yl)-2,5-diphenyltetrazolium bromide (MTT) was purchased formal Aladdin (Shanghai, China). The SH-SY5Y cell line was obtained from the Animal experimental center of Sun Yat-sen University.
(§3) The solutions of the enzyme were prepared to achieve 2.0 units/mL in 2 mL aliquots. The experiment system contained phosphate buffer, pH 8.0 (1 mL), 50 μL of 0.01 M substrate (ATC), 50 μL of 0.01 M DTNB, and 10 μL of enzyme. The substrate was added into the experiment system containing the DTNB, buffer, and enzyme with inhibitors after 15 min of incubation. […] Calculations were conducted according to the assay of Ellman et al.. The in vitro BuChE assay was performed using the method described above.

The target of data set [2] is T2, BuChE (E.C. 3.1.1.8) (Equus caballus, UniProt P81908).
T2 construct: purchased Sigma-Aldrich (St. Louis, MO, USA); host or cells: equine serum
T2 sequence (P81908 whole entry): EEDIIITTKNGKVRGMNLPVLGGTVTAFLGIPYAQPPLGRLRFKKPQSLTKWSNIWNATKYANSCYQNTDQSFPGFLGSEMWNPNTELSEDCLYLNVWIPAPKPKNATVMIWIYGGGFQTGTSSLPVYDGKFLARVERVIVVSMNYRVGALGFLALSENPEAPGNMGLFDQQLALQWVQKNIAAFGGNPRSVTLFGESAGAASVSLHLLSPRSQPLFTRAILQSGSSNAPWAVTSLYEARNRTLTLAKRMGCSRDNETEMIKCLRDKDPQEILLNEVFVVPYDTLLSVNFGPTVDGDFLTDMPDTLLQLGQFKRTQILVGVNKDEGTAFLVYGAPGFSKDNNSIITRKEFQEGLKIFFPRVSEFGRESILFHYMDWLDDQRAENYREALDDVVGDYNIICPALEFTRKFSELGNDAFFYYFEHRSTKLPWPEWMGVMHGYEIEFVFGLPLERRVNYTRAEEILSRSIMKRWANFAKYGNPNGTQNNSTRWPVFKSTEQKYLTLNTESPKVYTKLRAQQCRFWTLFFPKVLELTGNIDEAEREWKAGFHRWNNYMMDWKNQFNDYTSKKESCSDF
The data set is described as follows: biochemical. The following applies: means ± SEM of three experiments; pH 8.0, 37 °C, 15 min incubation; read-out: BuChE Inhibition (IC50). The procedure:
as §1, §2, §3

Data set [3] deals with T1, AChE (E.C. 3.1.1.7). The data set is described as follows: biochemical. Particulars: stated in the introduction, early efforts.
In data set [4] the target is T3, AChE (Electrophorus electricus, UniProt O42275).
T3 construct: purchased Sigma-Aldrich (St. Louis, MO, USA)
T3 sequence (O42275 24-633): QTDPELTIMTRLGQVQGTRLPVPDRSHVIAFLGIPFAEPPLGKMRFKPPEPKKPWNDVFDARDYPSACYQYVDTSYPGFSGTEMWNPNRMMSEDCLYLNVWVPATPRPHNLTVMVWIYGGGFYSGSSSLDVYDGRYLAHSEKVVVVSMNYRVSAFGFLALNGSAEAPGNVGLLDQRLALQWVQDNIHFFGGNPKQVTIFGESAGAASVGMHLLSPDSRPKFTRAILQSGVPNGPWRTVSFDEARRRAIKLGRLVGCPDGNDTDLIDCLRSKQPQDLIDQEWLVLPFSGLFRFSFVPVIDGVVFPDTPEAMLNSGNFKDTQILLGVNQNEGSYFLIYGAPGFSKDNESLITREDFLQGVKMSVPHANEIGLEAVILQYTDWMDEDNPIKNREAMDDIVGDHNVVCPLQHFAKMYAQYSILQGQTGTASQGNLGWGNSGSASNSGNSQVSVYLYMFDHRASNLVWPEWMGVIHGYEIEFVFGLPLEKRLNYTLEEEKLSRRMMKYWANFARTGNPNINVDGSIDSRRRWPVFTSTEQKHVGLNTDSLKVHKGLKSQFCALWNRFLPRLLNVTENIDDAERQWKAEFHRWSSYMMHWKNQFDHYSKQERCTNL
In words: Kinetic characterization of AChE inhibition (Lineweaver-Burk plot). It is filed as biochemical, electric eel. The following applies: lines intersect in the second quadrant. Here is the method: When the small-molecule ligand was combined with the AChE active center (CAS), the type of inhibition of the enzyme was classified as competitive inhibition; by contrast, when the small-molecule ligand was acted on the PAS, the enzymatic inhibition was classified as non-competitive inhibition. […] This conclusion was verified by subsequent molecular docking experiments.
Figure 2 Lineweaver-Burk plot for the inhibition of AChE by 5c.
The kinetic characterization of AChE was performed using the reported method. Three concentrations ([…]) of the substrate were mixed in 1 mL 0.1 M KH2PO4/K2HPO4 buffer (pH 8.0) containing 10 μL AChE, 50 μL DTNB, and 50 μL substrate. The test compound was added into the assay solution and was pre-incubated with the AChE at 37 °C for 15 min followed by addition of the substrate. The kinetic characterization of the AChE-catalyzed ATC hydrolysis was performed spectrometrically at 412 nm. A parallel control with no inhibitor in the mixture allowed adjusting activities to be measured at various times.

Data set [5] deals with AChE-induced Aβ42 aggregation. In words: Thioflavin T-based fluorometric assay of AChE-induced Aβ42 aggregation. It is filed as biochemical. The following applies: 5, 10, 20, 40 and 80 μM; 48 h at 37 °C; effect related to compound concentration. The procedure: To explore the combining effect of graveoline analogs on the AChE functional site PAS, compound 5c was chosen to study the inhibitory activity of AChE-induced Aβ aggregation using thioflavin T-based fluorometric assay. […] The inhibitory effect of 5c was related to the compound concentration. […]
Figure 4 Determination of 5c inhibition potency on AChE-induced amyloid-β (Aβ)42 aggregation.
The self-mediated Aβ42 aggregation was evaluated through the thioflavin-T fluorescence assay. A mixture of 230 μM Aβ42 peptide, 2.30 μM AChE (Aβ42/AChE molar ratio 100:1), and the indicated concentrations of compound 5c (5, 10, 20 ,40 and 80 μM) were added to the phosphate buffer (pH 7.40, 0.01 M). After co-incubated in 37 °C for 48 h, thioflavin-T (5 μM in 50 mM glycine-NaOH buffer, pH 8.00) was added. Fluorescence was monitored with excitation at 450 nm (λex) and 485 nm (λem) by the Spectrofluorimeter LS55. The fluorescence intensity values reached at the plateau (around 300 s) were recorded after subtracting the background fluorescence. The solutions containing Aβ42, and Aβ42 plus HuAChE was checked as control. Each experiment was run in triplicate.

For data set [6], the system named is SH-SY5Y cells. In words: Neurocyte toxicity test in vitro (MTT method). It is filed as cell-based. Particulars: 40 μM, 48 h. Here is the method:
Thus, we used the methyl thiazolyl tetrazolium (MTT) method to perform a neurocyte (SH-SY5Y) toxicity test in vitro. […] However, cell viability was greatly influenced at 20 and 40 μM concentrations and the inhibition rates were more than 90%. […] However, compared with the cholinesterase activity at the nanomole level, this level of cytotoxicity is acceptable. […]
Figure 5 Inhibition for SH-SY5Y of compounds 4a–4c, 5a–5c, 6a–6b and curcumin at different concentrations.
The SH-SY5Y cell line was seeded on 96-well plates at a density of 1.0 × 10^4 cells/well. After overnight incubation, the cells were treated with various concentrations (0.1, 1, 20, and 40 μM) of graveoline derivatives for 48 h. Subsequently, 10 μL of 5 mg/mL MTT solution was added to each well and further incubated for 4 h at 37 °C. The solution was carefully removed, and each well was treated with dimethyl sulfoxide (DMSO) (200 μL for each well). The optical density of the wells was then read on the microplate reader at 490 nm. The parallel tests of all drug doses were performed in triplicate.
(In general: Tetrazolium dyes change colour on reduction, which living cells bring about.)

Read-outs that look alike come from different tables or passages of the source.

T1 sequence (O42275 24-633): as above

In general, IC50 refers to the concentration needed to halve the response being measured. `Cc1ccc(-c2cc(=O)c3ccccc3n2C)cc1` [Compound 2, 1-Methyl-2-p-tolylquinolin-4(1H)-one]: the “Selectivity Index” value in data set [1] is listed as 3. In addition, the values for the IC50 in data set [1], in data set [2] and in data set [3] were 3.65 ± 0.038 µM, 9.306 ± 0.076 µM and 3.65 µM, respectively.
As to `CN(C)CCNCc1ccc(-c2cc(=O)c3ccccc3n2C)cc1` [Compound 4a, 2-(4-((2-(Dimethylamino)ethylamino)methyl)phenyl)-1-methylquinolin-4(1H)-one], in data set [1], the “Selectivity Index” value is reported as 45 and the IC50 amounted to 0.0785 ± 0.00176 µM. Further, the IC50 in data set [2] came to 3.52 ± 0.046 µM.
The corresponding values for `Cn1c(-c2ccc(CNCCCCN3CCCC3)cc2)cc(=O)c2ccccc21` [Compound 6b, 1-Methyl-2-(4-((4-(pyrrolidin-1-yl)butylamino)methyl)phenyl)quinolin-4(1H)-one] are 193, 0.0126 ± 0.00057 µM and 2.43 ± 0.049 µM.
The corresponding values for `CN(C)CCCNCc1ccc(-c2cc(=O)c3ccccc3n2C)cc1` [Compound 5a, 2-(4-((3-(Dimethylamino)propylamino)methyl)phenyl)-1-methylquinolin-4(1H)-one] are 80, 0.0334 ± 0.00078 µM and 2.68 ± 0.032 µM.
Consider `Cn1c(-c2ccc(CNCCCN3CCCCC3)cc2)cc(=O)c2ccccc21` [Compound 5c, 1-Methyl-2-(4-((3-(piperidin-1-yl)propylamino)methyl)phenyl)quinolin-4(1H)-one], for which the “Selectivity Index” value in data set [1] turned out to be 486. Moreover, the half-maximal inhibitory concentration (IC50) in data set [1] is 0.00236 ± 0.00024 µM; in data set [2], 1.15 ± 0.031 µM. Besides, the “type of inhibition of AChE” value in data set [4] is given as “mixed inhibition”. The “inhibition of AChE-induced Aβ42 aggregation” value in data set [5] is listed as “significantly inhibit”.
With `Cn1c(-c2ccc(CNCCCN3CCCC3)cc2)cc(=O)c2ccccc21` [Compound 5b, 1-Methyl-2-(4-((3-(pyrrolidin-1-yl)propylamino)methyl)phenyl)quinolin-4(1H)-one], in data set [1], the “Selectivity Index” value is reported as 291. Moreover, the IC50 in data set [1] was 0.00647 ± 0.00015 µM; in data set [2], 1.89 ± 0.054 µM.
The compound `COc1cc(/C=C/C(=O)CC(=O)/C=C/c2ccc(O)c(OC)c2)ccc1O` [curcumin] showed a neurocyte inhibition rate in data set [6] of 57.3%.
Take `Cn1c(-c2ccc(CNCCN3CCCCC3)cc2)cc(=O)c2ccccc21` [Compound 4c, 1-Methyl-2-(4-((2-(piperidin-1-yl)ethylamino)methyl)phenyl)quinolin-4(1H)-one]: the “Selectivity Index” value in data set [1] is 160. In addition, the IC50 in data set [1] came to 0.00963 ± 0.00076 µM; in data set [2] it was 1.54 ± 0.029 µM.
Regarding `Cn1c(-c2ccc(CNCCN3CCCC3)cc2)cc(=O)c2ccccc21` [Compound 4b, 1-Methyl-2-(4-((2-(pyrrolidin-1-yl)ethylamino)methyl)phenyl)quinolin-4(1H)-one], the IC50 in data set [1] was determined as 0.0102 ± 0.00133 µM; in data set [2], 2.47 ± 0.085 µM.
Consider `CN(C)CCCCNCc1ccc(-c2cc(=O)c3ccccc3n2C)cc1` [Compound 6a, 2-(4-((4-(Dimethylamino)butylamino)methyl)phenyl)-1-methylquinolin-4(1H)-one], for which the “Selectivity Index” value in data set [1] was found to be 103. Also, the 50% inhibitory concentration (IC50) was found to be 0.0355 ± 0.00096 µM in data set [1] and 3.67 ± 0.039 µM in data set [2].
